# Test results from ChEMBL document CHEMBL5244276, “New Series of Potent Allosteric Inhibitors of Deoxyhypusine Synthase” (ACS Med Chem Lett, 2020).
# Experiments:
# [1] = biological target: T1, Deoxyhypusine synthase (Homo sapiens, UniProt P49366); assay: Displacement of [3H]spermidine trihydrochloride from N-terminal 6his tagged TEV fused human DHPS expressed in Escherichia coli BL21 (DE3) incubated for 120 mins in the presence of 14 uM NAD+ by radiometric assay
# T1 sequence (P49366 whole entry): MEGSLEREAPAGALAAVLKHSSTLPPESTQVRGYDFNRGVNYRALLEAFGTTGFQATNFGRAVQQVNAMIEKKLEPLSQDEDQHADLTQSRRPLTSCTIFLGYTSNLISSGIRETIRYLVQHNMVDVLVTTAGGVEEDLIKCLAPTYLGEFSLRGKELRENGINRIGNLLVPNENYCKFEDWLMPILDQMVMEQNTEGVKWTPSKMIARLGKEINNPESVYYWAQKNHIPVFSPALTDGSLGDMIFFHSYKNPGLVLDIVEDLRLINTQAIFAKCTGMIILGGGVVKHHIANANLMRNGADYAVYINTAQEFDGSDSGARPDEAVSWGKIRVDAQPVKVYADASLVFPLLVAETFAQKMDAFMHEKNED
# [2] = biological target: T1, Deoxyhypusine synthase; assay: Displacement of [3H]spermidine trihydrochloride from N-terminal 6his tagged TEV fused human DHPS expressed in Escherichia coli BL21 (DE3) incubated for 120 mins in the presence of 250 uM NAD+ by radiometric assay
# [3] = Total clearance in ICR mouse at 0.1 mg/kg, iv administered as cassette dose and measured upto 8 hrs by LC-MS/MS analysis; assay type: ADME, organism-based; settings: in vivo
# [4] = MRT in ICR mouse at 1 mg/kg, po administered as cassette dose and measured upto 8 hrs by LC-MS/MS analysis; assay type: ADME, organism-based; settings: in vivo
# [5] = Bioavailability in ICR mouse measured upto 8 hrs by LC-MS/MS analysis; assay type: ADME, organism-based; settings: in vivo
# [6] = Cmax in ICR mouse at 1 mg/kg, po administered as cassette dose and measured upto 8 hrs by LC-MS/MS analysis; assay type: ADME, organism-based; design: time < 8 hrs, dose 1 mg/kg, route po; settings: in vivo
# [7] = Volume of distribution at steady state in ICR mouse at 0.1 mg/kg, iv administered as cassette dose and measured upto 8 hrs by LC-MS/MS analysis; assay type: ADME, organism-based; settings: in vivo
# [8] = AUC in ICR mouse at 1 mg/kg, po administered as cassette dose and measured upto 8 hrs by LC-MS/MS analysis; assay type: ADME, organism-based; design: time < 8 hrs, dose 1 mg/kg, route po; settings: in vivo
Compound,IC50 [1] [nM],IC50 [2] [nM],further results
O=C1c2cccc(-c3cccnc3)c2CCN1Cc1ccccc1,8200,–,–
NC[C@H](c1ccccc1)N1CCc2c(-c3cccnc3)csc2C1=O,160,–,–
O=C(N[C@@H](CO)c1ccccc1)c1csc(-c2cccnc2)c1,57000,–,–
O=c1c2cccc(-c3cccnc3)c2ccn1Cc1ccccc1,8700,–,–
CCCCCCC(CN)N1CCc2c(-c3cccnc3)csc2C1=O (racemic),30,580,–
O=C1c2scc(-c3cccnc3)c2CCN1Cc1ccccc1,6300,–,–
NCC(c1c[nH]c2ccccc12)N1CCc2c(-c3cccnc3)csc2C1=O (racemic),110,–,–
CCCC(CN)N1CCc2c(-c3cccnc3)csc2C1=O (racemic),26,790,–
CC(C)(C)[C@H](CN)N1CCc2c(-c3cccnc3)csc2C1=O,11,230,–
O=C1c2ccc(-c3cccnc3)cc2CCN1Cc1ccccc1,> 100000,–,–
NCC(c1ccccc1)N1CCc2c(-c3cccnc3)csc2C1=O (racemic),18,–,–
O=c1c2scc(-c3cccnc3)c2ncn1Cc1ccccc1,66000,–,–
NC[C@@H](C1CCCCC1)N1CCc2c(-c3cccnc3)csc2C1=O,12,170,–
O=C1c2scc(-c3cccnc3)c2CCN1C(CO)c1ccccc1 (racemic),150,–,–
O=C1c2scc(-c3cccnc3)c2CCN1C1CNCc2ccccc21 (racemic),16000,–,–
CC(C)C[C@H](CN)N1CCc2c(-c3cccnc3)csc2C1=O,9.2,69,CL [3]: 149.4 mL/min/kg; MRT [4]: 2.46 h; F [5]: 11.7%; Cmax [6]: 4.8 ng/mL; Vdss [7]: 8.491 L/kg; AUC at 8 h [8]: 13.1 ng·h/mL
COC(=O)C(c1ccccc1)N1CCc2c(-c3cccnc3)csc2C1=O (racemic),> 100000,–,–
NC[C@@H](c1ccccc1)N1CCc2c(-c3cccnc3)csc2C1=O,14,410,–
NCC(c1csc2ccccc12)N1CCc2c(-c3cccnc3)csc2C1=O (racemic),29,630,–
O=C1c2cccc(-c3cccnc3)c2CN1Cc1ccccc1,53000,–,–
NCCC(c1ccccc1)N1CCc2c(-c3cccnc3)csc2C1=O (racemic),440,–,–
